Measurements reported in US7118745B1, “Engineering antibodies that bind irreversibly” (The Regents of the University of California, priority 1999, dated 2006).

Assays:
native antibody CHA255 = test: Control incubation of chelates with native antibody CHA255 (covalent labeling); type: biochemical, mouse; conditions: indium chelates incubated with native antibody; BABE: after several hours
Description: As a control, the same chelates were incubated with native antibody CHA255, to see if they would covalently label it.

S95C Fab light chain = test: Covalent cross-linking of 111In-labeled chelates to S95C Fab in culture medium (SDS-PAGE, phosphorimage); type: biochemical, mouse/human chimeric; conditions: 111In-labeled chelate, culture medium containing S95C mutant, 30 minutes
Description: FIG. 18 is a phosphorimage of a 15% SDS-PAGE gel of samples incubated 30 minutes at 37° C. Chelates (CABE, CpABE, AABE, ABE) are in lanes 1–4, along with culture medium containing the S95C mutant. The (radiolabeled) band (at 26 kDa) in lane 1 is the crosslink between CABE (our positive control) and S95C Fab light chain. […] No crosslinks are observed with the non-nucleophilic native Fab, nor with the N96C mutant.
100 μl of complete culture medium from S2 cultures expressing each of the CHA255 Chimeric Fabs was mixed with 5 μl of 100 mM DOTA to sequester Cu^2+ from induction of expression. Each chelate was loaded with ^111In as previously described with a specific activity of 200 μCi. Complete metallation was analyzed by TLC as described previously. Specifically, 1 μl of chelate was added to 2.8 μl of 0.1 M citrate buffer (pH 5.5) to which was added 1.2 μl of carrier free ^111In (Nordion) ([…]) and the chelate was analyzed by TLC. 4 μl of loaded chelate was added to the 105 μl of Fab-DOTA in medium. This solution was incubated for 30 min. at room temperature. The reaction was stopped by separation of excess chelate by gel filtration spin chromatography (Penefsky column). 20 μl of eluant was added to 5 μl of sample application buffer containing β-mercaptoethanol (5×SDS PAGE SAB), boiled and reduced for 10 min. at 95° C. This was loaded onto a 1020% SDS-Page gel and electrophoriesed for 1 hr at 200V. The gel was fixed and dried via standard protocols and then exposed to a phosphorimager plate for 12 h. The plate was visualized with a Storm 640 phosphorimager (Molecular Dymanics).
In-labeled electrophilic chelates were incubated in Fab-containing culture medium to investigate whether either of the mutant antibodies would bind irreversibly to its target. Serum-containing culture medium was used as a representation of typical biological media. […] We incubated ^111In-labeled chelates bearing electrophilic acrylamido, chloroproprionamido, or chloroacetamido groups at physiological pH and temperature with raw tissue culture medium from the cells expressing the recombinant antibodies. As a control, an ^111In-labeled chelate bearing the non-electrophilic amino group was also included. At various times after addition of the radioactive chelates, we removed samples from the incubation and applied them to a gel filtration spin column to remove excess radiolabeled chelate.
The samples were analyzed by SDS-PAGE and visualized by phosphorimager. Separation under reducing and denaturing conditions on SDS-PAGE will separate the light chain from the heavy chain of each Fab, functionally destroying the antibody-binding pocket.

human serum albumin = human serum albumin (Homo sapiens, UniProt P02768); test: Stability of 111In-labeled bifunctional chelates incubated with human serum albumin (TLC); type: in vitro ADME; conditions: after 20 hrs; 20 mM Hepes, pH 7.4, 37° C.; 1 mM free sulfhydryl as human serum albumin
Description: The electrophilic chelates AABE, CABE, BABE were labeled with indium-111 and incubated in a Hepes buffered solution at physiological pH and temperature (20 mM Hepes, pH 7.4, 37° C.) containing 1 mM free sulfhydryl groups in the form of human serum albumin-approximating the concentration of thiols in plasma.
The reactive chelates 5–7 and aminobenzyl-EDTA (“ABE”) were labeled with ^111In and analyzed by TLC (50:50 Methanol/10% NaOAc pH8.2) to show complete chelation. To 0.5 mL of human serum albumin solution was added 2 μl of one of the labeled chelates. […] The vials were mixed by manual agitation, and 2 μl was removed and analyzed by TLC.
The fraction unreacted is plotted versus incubation time in FIG. 6. After 20 hrs, >95% of the In-AABE and In-CABE molecules were unreacted, while most of the In-BABE was attached to albumin. This confirmed the expectation that AABE and CABE are stable, and are good candidates for pretargeting. We infer that these chelates should be unreactive in blood for the length of time needed for pretargeting (40 min–4 hrs); if not, many other choices are available.

human serum albumin, sequence (P02768 25-609): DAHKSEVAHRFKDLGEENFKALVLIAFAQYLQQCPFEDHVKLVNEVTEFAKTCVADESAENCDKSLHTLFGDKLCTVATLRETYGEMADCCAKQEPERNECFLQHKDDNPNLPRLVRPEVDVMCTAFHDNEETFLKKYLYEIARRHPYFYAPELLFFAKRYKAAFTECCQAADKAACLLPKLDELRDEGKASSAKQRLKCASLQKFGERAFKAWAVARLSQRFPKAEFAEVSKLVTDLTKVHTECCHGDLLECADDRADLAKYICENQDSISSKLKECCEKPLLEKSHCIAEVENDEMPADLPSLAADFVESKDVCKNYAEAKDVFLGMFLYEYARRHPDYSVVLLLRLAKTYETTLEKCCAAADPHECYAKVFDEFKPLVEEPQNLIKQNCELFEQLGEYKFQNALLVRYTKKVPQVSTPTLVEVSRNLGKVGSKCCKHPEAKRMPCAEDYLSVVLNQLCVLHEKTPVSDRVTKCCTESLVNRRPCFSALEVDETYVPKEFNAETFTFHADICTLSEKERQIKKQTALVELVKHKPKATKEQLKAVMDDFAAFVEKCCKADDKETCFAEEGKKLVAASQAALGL

chelate attached to albumin (human serum albumin)	Compound	covalent attachment to native CHA255 (native antibody CHA255)	crosslink of chelate with S95C Fab light chain (radiolabeled 26 kDa band) (S95C Fab light chain)	crosslink of chelate with S95C Fab light chain (radiolabeled 26 kDa band) (S95C Fab light chain; listed as In-CABE)	crosslink of chelate with S95C Fab light chain (radiolabeled 26 kDa band) (S95C Fab light chain; listed as In-AABE)
–	Nc1ccc(CC(CN(CC(=O)O)CC(=O)O)N(CC(=O)O)CC(=O)O)cc1 (stereo not shown) [ABE, aminobenzyl-EDTA, reference compound]	did not covalently attach	does not show crosslinks	–	–
most	O=C(O)CN(CC(=O)O)CC(Cc1ccc(NC(=O)CBr)cc1)N(CC(=O)O)CC(=O)O (stereo not shown) [BABE, bromoacetylamidobenzyl]	did react to some degree	–	–	–
–	O=C(O)CN(CC(=O)O)CC(Cc1ccc(NC(=O)CCl)cc1)N(CC(=O)O)CC(=O)O (stereo not shown) [CABE, chloroacetylamidobenzyl]	did not covalently attach	crosslink	reacted equally well	–
–	C=CC(=O)Nc1ccc(CC(CN(CC(=O)O)CC(=O)O)N(CC(=O)O)CC(=O)O)cc1 (stereo not shown) [AABE, Acrylamidobenzyl-EDTA]	did not covalently attach	26 kDa band	–	reacted equally well
